Assay results as given in patent US12110293B2, “Substituted triazolo quinoxaline derivatives” (GRÜNENTHAL GMBH, priority 2018, dated 2024).

Target: T1, glucocorticoid receptor (Homo sapiens, UniProt P04150)
T1 construct: expressed in transfected cells
T1 sequence (P04150 524-758 limits assumed): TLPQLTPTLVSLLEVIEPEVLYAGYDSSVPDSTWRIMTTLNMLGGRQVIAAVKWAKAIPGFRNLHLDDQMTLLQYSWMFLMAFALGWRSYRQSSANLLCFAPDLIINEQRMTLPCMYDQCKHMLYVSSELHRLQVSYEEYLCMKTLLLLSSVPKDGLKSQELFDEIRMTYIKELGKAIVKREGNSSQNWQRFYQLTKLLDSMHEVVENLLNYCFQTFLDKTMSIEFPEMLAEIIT
Test: Agonistic mode of action on the glucocorticoid receptor (CHO-Gal4/GR luciferase reporter cell line)
Format: cell-based
Conditions: range class observed in the agonistic assay or the antagonistic assay (CHO-Gal4/GR reporter cells); table does not say which mode applies per example
How it was run: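 Agonism measured as dose-dependent luciferase luminescence (FLIPR Tetra) from a GAL4-UAS reporter driven by GAL4 DBD fused to GR ligand-binding domain in stable CHO cells. Eight half-log doses, 10 μM to 0.003 μM final in 0.5% DMSO, quadruplicate, on cells seeded 24 h earlier at 5000/well; EC50 derived.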

In the case of `Cc1nnc2n1-c1c(cc(F)c(-c3c(F)ccc4c3ccn4S(C)(=O)=O)c1F)NC2(C)C` [Example 224, 7,9-Difluoro-8-(5-fluoro-1-methylsulfonyl-1H-indol-4-yl)-1,4,4-trimethyl-5H-[1,2,4]triazolo[4,3-a]quinoxaline], the IC50 or EC50 (agonist or antagonist mode not specified) is reported as 100 to 1000 nM.
